Test results published in PMC7855930, “Nontoxic Cobalt(III) Schiff Base Complexes with Broad‐Spectrum Antifungal Activity” (Chemistry (Weinheim an Der Bergstrasse, Germany), 2020).
Where two headings read alike, the source gives them in different places.

Assays:
C. auris CBS 12373 = experiment: Antifungal MIC assay (broth microdilution in YNB); assay type: cell-based, Candida auris
From the text: (§1) Yeast strains: Candida albicans (ATCC 90028, NCCLS 11), Cryptococcus neoformans (ATCC 208821, H99 type strain), Candida tropicalis (ATCC 750, type strain), Candida glabrata (ATCC 90030, NCCLS 84) and Cryptococcus deuterogattii (ATCC 32609, type strain) were obtained from the American Type Culture Collection (ATCC). Cryptococcus deuterogattii (CBS 7750), Candida auris (CBS 10913) and Candida auris (CBS 12373) were obtained from the CBS‐KNAW culture collection. The strains were maintained on glycerol/YPD (yeast extract‐peptone dextrose) broth (20:80 v/v) at −80 °C.
(§2) Antifungal minimum inhibitory concentration (MIC) assay: The cobalt complexes and antifungal control compounds were serially diluted in 50 μL of Yeast Nitrogen Broth (YNB; BD, Cat No. 233520 supplemented with 2 % glucose and 10 mM ammonium sulfate) two‐fold across the wells of non‐binding surface (NBS) 96‐well plates (Corning; Cat. No. 3641). Plates were set up in quadruplicate for each strain tested, and two biological replicates were conducted on separate assay days.
(§3) Yeast strains were cultured from glycerol onto YPD (Becton Dickinson 242720) agar at 30 °C for 72 h. For each strain, a minimum of five single colonies were taken from the agar plate and dissolved in sterile water and adjusted to form a yeast suspension of 1×10^6 to 5×10^6 CFU mL^−1 (as determined by OD530). The suspension was subsequently diluted into YNB media, and added to each well of the compound containing plates, giving a final cell density of 2.5×10^3 CFU mL^−1 and a total volume of 100 μL. Plates were covered and incubated at 35 °C for 36 h without shaking.
(§4) Growth inhibition of all strains was determined visually where the MIC was recorded as the lowest compound concentration with no visible growth. Fluconazole (Sigma F8929), ketoconazole (Sigma K1003) and micafungin (Sigma SML2288) were used as internal positive inhibitor controls for every strain tested.

C. auris CBS 10913 = experiment: Antifungal MIC assay (broth microdilution in YNB); assay type: cell-based, Candida auris; details: for MIC C. auris CBS 10913, lowest value ('as low as'): lower end of MIC range
From the text: as §1, §2, §3, §4

[1] = system: C. neoformans ATCC 208821; experiment: Antifungal MIC assay (broth microdilution in YNB); assay type: cell-based, Cryptococcus neoformans
From the text: as §1, §2, §3, §4

C. glabrata ATCC 90030 = experiment: Antifungal MIC assay (broth microdilution in YNB); assay type: cell-based, Candida glabrata
From the text: as §1, §2, §3, §4

HEK293 cells = experiment: Cytotoxicity assay (resazurin); assay type: cell-based, human; details: 20 h incubation, 0.8–100 μM; read-out: Tox CC50 (cytotoxicity against HEK293 cells)
Method: (§5) Cytotoxicity assay: HEK293 ATCC CRL‐1573 human embryonic kidney cells suspended in DMEM media (Gibco; 11330332) supplemented with 10 % FBS (GE; SH30084.03) and 100 U mL^−1 each penicillin/streptomycin (Invitrogen; 15070063) were counted manually in a Neubauer haemocytometer and seeded into 384‐well, black wall, clear bottom tissue culture plates (Corning; Cat. No. 3712) at 5000 cells per well in a volume of 20 μL. Manually, 20 μL of each compound dilution was plated in duplicate on the cells, for a final concentration range of 0.8–100 μM. The cells were incubated together with the compounds for 20 h at 37 °C, 5 % CO2.
(§6) Cytotoxicity (or cell viability) was measured by fluorescence, ex: 560/10 nm, em: 590/10 nm (F560/590), after addition of 5 μL of 25 μg mL^−1 resazurin ([…]; Sigma R7017) and after further incubation for 3 h at 37 °C in 5 % CO2, using media only as negative control and cells without inhibitors as positive control. CC50 (concentration at 50 % cytotoxicity) were calculated by curve fitting the inhibition values vs. log(concentration) of four replicates using a sigmoidal dose‐response function, with variable fitting values for bottom, top and slope using Prism 8. Tamoxifen (Sigma T5648) was used as internal control on each plate.

Cyclic voltammetry = assay type: physicochemical; details: DMF with 0.1 M TBAP (this work)
Method: Cyclic voltammetry: Electrochemical measurements were carried out in the same manner as reported previously. ^[25b] Experiments were conducted using a Pine WaveNow potentiostat with a three‐electrode setup consisting of a glassy carbon working electrode, a platinum counter electrode, and an Ag wire quasi‐reference electrode. Complexes were dissolved in anhydrous DMF with 0.10 M [Bu4N][PF6] (TBAP) as the supporting electrolyte. Potentials were referenced using an internal standard of the ferrocene/ferricenium couple at 0.45 V vs. the saturated calomel electrode (SCE). ^[33] The sample cell was deoxygenated by bubbling nitrogen gas through the solution prior to analysis and maintained under a blanket of nitrogen during the experiment.

CO-ADD bacterial panel = experiment: CO-ADD bacterial panel, overall antibacterial activity; assay type: cell-based; details: CO‐ADD screening, Table S2
Method: CO-ADD High Throughput Screening
Bacterial broth microdilution minimum inhibitory concentration (MIC) assay Bacterial strains were cultured in Cation-adjusted Mueller Hinton broth (CAMHB; Bacto Laboratories 212322) at 37 °C overnight. A sample of each culture was then diluted 40-fold in fresh CAMHB and incubated at 37 °C for 1.5-3 h. The resultant mid-log phase cultures were diluted with CAMHB (CFU/mL measured by OD600), then added to each well of the compound-containing plates (384-well non-binding surface (NBS) plates; Corning CLS3640), giving a cell density of 5 × 10^5 CFU/mL and a total volume of 50 µL. Plates were covered and incubated at 37 °C for 18 h without shaking. Inhibition of bacterial growth was determined measuring absorbance at 600 nm (OD600), using media only as negative control and bacteria without inhibitors as positive control. MIC values were determined as the lowest concentration at which the growth was inhibited at ≥ 80%. Colistin sulfate (Sigma C4461) and vancomycin HCl (Sigma 861987) were used as positive inhibitor controls on each plate for Gram-negative and Gram-positive bacteria, respectively.
Figure S1. 1H NMR (400 MHz) of [Co(ATS)(DMAP)2]NO3 (3) in DMSO-d6.
(1 picture or pasted object on this page, not shown here)

[2] = Cytotoxicity assay (resazurin); assay type: cell-based, human; details: human, HEK293 cells (ATCC CRL-1573); 20 h incubation, 0.8–100 μM; read-out: Tox CC50 (cytotoxicity against HEK293 cells)
Method: as §5, §6

[3] = range of MICs, n=8, 35 °C, 36 h, visual, read-out: MIC C. auris CBS 12373
[4] = range of MICs, n=8, 35 °C, 36 h, visual, read-out: MIC C. neoformans ATCC 208821
[5] = range of MICs, n=8, 35 °C, 36 h, visual, read-out: MIC C. glabrata ATCC 90030
[6] = range of MICs, n=8, 35 °C, 36 h, visual
[7] = Candidozyma auris, CBS12373, Table S1, read-out: MIC Candida auris CBS 12373
[8] = Candidozyma auris, CBS12373, range of MICs, n=8, 35 °C, 36 h, visual, read-out: MIC C. auris CBS 12373
[9] = Candidozyma auris, CBS10913, Table S1, read-out: MIC Candida auris CBS 10913
[10] = Candidozyma auris, CBS10913, range of MICs, n=8, 35 °C, 36 h, visual, read-out: MIC C. auris CBS 10913
[11] = Cryptococcus neoformans, ATCC208821, Table S1, read-out: MIC Cryptococcus neoformans ATCC 208821
[12] = Cryptococcus neoformans, ATCC208821, range of MICs, n=8, 35 °C, 36 h, visual, read-out: MIC C. neoformans ATCC 208821
[13] = Nakaseomyces glabratus, ATCC90030, Table S1, read-out: MIC Candida glabrata ATCC 90030
[14] = Nakaseomyces glabratus, ATCC90030, range of MICs, n=8, 35 °C, 36 h, visual, read-out: MIC C. glabrata ATCC 90030

Row | Compound | MIC Candida auris CBS 12373 (C. auris CBS 12373; Table S1) [µg/mL] | MIC (C. auris CBS 12373; [3]) [µM] | MIC Candida auris CBS 10913 (C. auris CBS 10913; Table S1) [µg/mL] | MIC Cryptococcus neoformans ATCC 208821 ([1]; Table S1) [µg/mL] | MIC [1, 4] [µM] | MIC Candida glabrata ATCC 90030 (C. glabrata ATCC 90030; Table S1) [µg/mL] | MIC (C. glabrata ATCC 90030; [5]) [µM] | CC50 (HEK293 cells) [µM] | First reduction E pc (Cyclic voltammetry) [V vs. SCE] | Second reduction E 1/2 (Cyclic voltammetry) [V vs. SCE] | MIC (C. auris CBS 12373; [7]) [µg/mL] | MIC (C. auris CBS 12373; [8]) [µM] | MIC (C. auris CBS 10913; [9]) [µg/mL] | MIC (C. auris CBS 10913; [10]) [µM] | MIC [1, 11] [µg/mL] | MIC [1, 12] [µM] | MIC (C. glabrata ATCC 90030; [13]) [µg/mL] | MIC (C. glabrata ATCC 90030; [14]) [µM] | CC50 at 20 h [2] [µM] | other results
1 | O=[N+]([O-])[O-].O=[N+]([O-])[O-].[Co+2] [Co, Co(NO3)2, reference compound] | 29.1 | 100 | > 29.1 | > 29.1 | >100 | > 29.1 | >100 | > 100 | – | – | – | – | – | – | – | – | – | – | – | MIC (C. auris CBS 10913; range of MICs, n=8, 35 °C, 36 h, visual, read-out: MIC C. auris CBS 10913): >100 µM
2 | CC1=[N+]2N=C(N)[S][Co-3]23([n+]2ccc(N(C)C)cc2)([n+]2ccc(N(C)C)cc2)[S]C(N)=N[N+]3=C1C.O=[N+]([O-])[O-] [Compound 3, [Co(ATS)(DMAP)2]NO3] | 0.46 | 0.78 | 0.23 to 0.46 | 0.46 to 0.93 | – | 29.7 | 50 | > 100 | −0.69 | −1.17 | – | – | – | – | – | – | – | – | – | MIC C. auris CBS 10913 (C. auris CBS 10913; [6]): 0.39 to 0.78 µM
3 | O=[N+]([O-])[O-].[NH3+][Co-3]123([NH3+])[O]c4c(F)cccc4C=[N+]1c1ccccc1[N+]2=Cc1cccc(F)c1[O]3 [Compound 7, [Co(3F‐salophen)(NH3)2]NO3] | 23.9 | 50 | 0.37 to 0.75 | 47.8 | 100 | 47.8 | 100 | > 100 | −0.75 | −1.08 | – | – | – | – | – | – | – | – | – | MIC C. auris CBS 10913, lowest value ('as low as') (C. auris CBS 10913): 0.78 µM; MIC C. auris CBS 10913 (C. auris CBS 10913; [6]): 0.78 to 1.56 µM; Antibacterial activity (CO-ADD bacterial panel): neither antibacterial nor antifungal activity
4 | CC(=N\NC(N)=S)/C(C)=N/NC(N)=S [Compound L1] | – | – | – | – | – | – | – | – | – | – | > 23.2 | > 100 | > 23.2 | > 100 | > 23.2 | > 100 | > 23.2 | > 100 | > 100 | –
5 | CC(/C=C(\O)C(F)(F)F)=N\CC/N=C(C)/C=C(\O)C(F)(F)F [Compound L2] | – | – | – | – | – | – | – | – | – | – | > 33.2 | > 100 | > 33.2 | > 100 | > 33.2 | > 100 | > 33.2 | > 100 | > 100 | –
6 | Oc1c(F)cccc1/C=N/CC/N=C/c1cccc(F)c1O [Compound L3] | – | – | – | – | – | – | – | – | – | – | > 30.4 | 100 | > 30.4 | > 100 | > 30.4 | 100 | > 30.4 | > 100 | > 100 | –
7 | [Co(3F‐salophen)(3F‐BnNH2)2]NO3 [Compound 6] | 17.3 | 25 | 0.03 to 0.54 | 69.4 | 100 | > 69.4 | >100 | > 100 | −0.59 | −1.06 | – | – | – | – | – | – | – | – | – | MIC C. auris CBS 10913, lowest value ('as low as') (C. auris CBS 10913): 0.098 µM
